Measured values from patent US20260226086A1, “COMPOUNDS AND COMPOSITIONS AS STAT3 DEGRADERS AND USES THEREOF” (REGENTS OF THE UNIVERSITY OF MICHIGAN, priority 2023, published 2026).

Assays:
Format in all cases: cell-based
SU-DHL-1 cells = test: CellTiter-Glo 2.0 cell viability assay, SU-DHL-1; settings: Homo sapiens, 96 h, 4 days
How it was run: (§1)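 IC50 derived by four-parameter nonlinear regression on triplicate luminescence data (CellTiter-Glo 2.0), normalised to untreated controls. Cells plated at 1000/well received serial compound dilutions for 4 days at 37 °C with 5% CO2.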

SUP-M2 cells = test: CellTiter-Glo 2.0 cell viability assay, SUP-M2; settings: SUP-M2, 96 h, 4 days
How it was run: as §1

STAT3 = molecular target: T1, STAT3 (Homo sapiens, UniProt P40763); test: HiBiT assay, STAT3 degradation in STAT3-HiBiT KI HeLa cells; settings: 24 h; for DC50: read-out: STAT3 Degradation (HeLa 24 h HiBit) DC50
T1 construct: This cell line is a clone created by using CRISPR-Cas9 to fuse HiBiT to the 3′ end of STAT3 in HeLa cells; host or cells: STAT3-HiBiT KI HeLa cell line (CRISPR-Cas9 knock-in clone)
T1 sequence (P40763 whole entry): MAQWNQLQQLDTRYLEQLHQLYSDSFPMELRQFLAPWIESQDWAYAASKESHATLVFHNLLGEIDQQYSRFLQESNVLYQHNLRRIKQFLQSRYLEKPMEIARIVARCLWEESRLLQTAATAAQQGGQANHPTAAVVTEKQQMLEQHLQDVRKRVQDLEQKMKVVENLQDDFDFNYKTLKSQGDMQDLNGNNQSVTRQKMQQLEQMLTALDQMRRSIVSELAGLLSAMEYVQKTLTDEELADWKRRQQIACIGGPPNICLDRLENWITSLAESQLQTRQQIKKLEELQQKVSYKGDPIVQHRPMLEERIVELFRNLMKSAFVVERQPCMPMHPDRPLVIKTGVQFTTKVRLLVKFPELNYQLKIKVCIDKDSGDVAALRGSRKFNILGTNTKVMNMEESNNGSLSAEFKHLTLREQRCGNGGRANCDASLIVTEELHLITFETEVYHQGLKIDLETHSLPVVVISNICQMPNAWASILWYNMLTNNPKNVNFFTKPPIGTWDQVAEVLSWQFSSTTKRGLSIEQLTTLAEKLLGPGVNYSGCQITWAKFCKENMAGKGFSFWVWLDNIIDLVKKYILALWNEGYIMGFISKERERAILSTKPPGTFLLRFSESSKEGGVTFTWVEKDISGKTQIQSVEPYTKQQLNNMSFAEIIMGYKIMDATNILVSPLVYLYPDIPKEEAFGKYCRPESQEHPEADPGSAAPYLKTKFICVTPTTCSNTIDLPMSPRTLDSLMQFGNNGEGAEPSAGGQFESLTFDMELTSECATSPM
How it was run: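 Luminescence of endogenous HiBiT-tagged STAT3 (C-terminal knock-in, HeLa) was measured with lytic Nano-Glo detection after 24 h exposure to serially diluted compounds at 37 °C. Cells plated at 20000/well; untreated cells served as control, and triplicate means were fit by four-parameter regression to give IC50.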

Row | Compound | IC50 (SU-DHL-1 cells) | IC50 (SUP-M2 cells) | Dmax at 1 µM (STAT3) | DC50 (STAT3)
1 | CC(=O)N1CC[C@H]2CC[C@@H](C(=O)N[C@@H](CCC(N)=O)COc3cccc(CCCCN4CCC([C@@H](C(=O)N5C[C@H](O)C[C@H]5C(=O)N[C@@H](C)c5ccc(-c6scnc6C)cc5)n5cc(C6CC6)nn5)CC4)c3Cl)N2C(=O)[C@@H](NC(=O)c2cc3cc(C(=O)P(=O)(O)O)ccc3[nH]2)C1 [Compound 38, (2-(((5S,8S,10aR)-3-acetyl-8-(((S)-5-amino-1-(2-chloro-3-(4-(4-((S)-1-(4-cyclopropyl-1H-1,2,3-triazol-1-yl)-2-((2S,4R)-4-hydroxy-2-(((S)-1-(4-(4-methylthiazol-5-yl)phenyl)ethyl)carbamoyl)pyrrolidin-1-yl)-2-oxoethyl)piperidin-1-yl)butyl)phenoxy)-5-oxopentan-2-yl)carbamoyl)-6-oxodecahydropyrrolo[1,2-a][1,5]diazocin-5-yl)carbamoyl)-1H-indole-5-carbonyl)phosphonic acid] | > 1000 nM | 10 to 100 nM | 60 to 80% | 100 to 1000 nM
2 | CC(=O)N1CC[C@H]2CC[C@@H](C(=O)N[C@@H](CCC(N)=O)COc3cccc(CCCc4cn([C@H](C(=O)N5C[C@H](O)C[C@H]5C(=O)N[C@@H](CO)c5ccc(-c6scnc6C)cc5)C(C)(C)C)nn4)c3Cl)N2C(=O)[C@@H](NC(=O)c2cc3cc(C(=O)P(=O)(O)O)ccc3[nH]2)C1 [Compound 39, (2-(((5S,8S,10aR)-3-acetyl-8-(((S)-5-amino-1-(2-chloro-3-(3-(1-((S)-1-((2S,4R)-4-hydroxy-2-(((R)-2-hydroxy-1-(4-(4-methylthiazol-5-yl)phenyl)ethyl)carbamoyl)pyrrolidin-1-yl)-3,3-dimethyl-1-oxobutan-2-yl)-1H-1,2,3-triazol-4-yl)propyl)phenoxy)-5-oxopentan-2-yl)carbamoyl)-6-oxodecahydropyrrolo[1,2-a][1,5]diazocin-5-yl)carbamoyl)-1H-indole-5-carbonyl)phosphonic acid] | < 10 nM | < 10 nM | > 80% | < 10 nM
3 | Cc1ncsc1-c1ccc([C@H](C)NC(=O)[C@@H]2C[C@@H](O)CN2C(=O)[C@@H](NC(=O)CC(=O)N2CC[C@H]3CC[C@@H](C(=O)N[C@@H](CCC(N)=O)C(=O)NC(c4ccccc4)c4ccccc4)N3C(=O)[C@@H](NC(=O)c3cc4cc(C(=O)P(=O)(O)O)ccc4[nH]3)C2)C(C)(C)C)cc1 [Compound 46, (2-(((5S,8S,10aR)-8-(((S)-5-amino-1-(benzhydrylamino)-1,5-dioxopentan-2-yl)carbamoyl)-3-(3-(((S)-1-((2S,4R)-4-hydroxy-2-(((S)-1-(4-(4-methylthiazol-5-yl)phenyl)ethyl)carbamoyl)pyrrolidin-1-yl)-3,3-dimethyl-1-oxobutan-2-yl)amino)-3-oxopropanoyl)-6-oxodecahydropyrrolo[1,2-a][1,5]diazocin-5-yl)carbamoyl)-1H-indole-5-carbonyl)phosphonic acid] | > 1000 nM | > 1000 nM |  | > 1000 nM
4 | Cc1ncsc1-c1ccc([C@H](C)NC(=O)[C@@H]2C[C@@H](O)CN2C(=O)[C@@H](NC(=O)CCC(=O)N2CC[C@H]3CC[C@@H](C(=O)N[C@@H](CCC(N)=O)C(=O)NC(c4ccccc4)c4ccccc4)N3C(=O)[C@@H](NC(=O)c3cc4cc(C(=O)P(=O)(O)O)ccc4[nH]3)C2)C(C)(C)C)cc1 [Compound 47, (2-(((5S,8S,10aR)-8-(((S)-5-amino-1-(benzhydrylamino)-1,5-dioxopentan-2-yl)carbamoyl)-3-(4-(((S)-1-((2S,4R)-4-hydroxy-2-(((S)-1-(4-(4-methylthiazol-5-yl)phenyl)ethyl)carbamoyl)pyrrolidin-1-yl)-3,3-dimethyl-1-oxobutan-2-yl)amino)-4-oxobutanoyl)-6-oxodecahydropyrrolo[1,2-a][1,5]diazocin-5-yl)carbamoyl)-1H-indole-5-carbonyl)phosphonic acid] | 100 to 1000 nM | 100 to 1000 nM |  | 100 to 1000 nM
5 | Cc1ncsc1-c1ccc([C@H](C)NC(=O)[C@@H]2C[C@@H](O)CN2C(=O)[C@@H](NC(=O)CCCC(=O)N2CC[C@H]3CC[C@@H](C(=O)N[C@@H](CCC(N)=O)C(=O)NC(c4ccccc4)c4ccccc4)N3C(=O)[C@@H](NC(=O)c3cc4cc(C(=O)P(=O)(O)O)ccc4[nH]3)C2)C(C)(C)C)cc1 [Compound 48, (2-(((5S,8S,10aR)-8-(((S)-5-amino-1-(benzhydrylamino)-1,5-dioxopentan-2-yl)carbamoyl)-3-(5-(((S)-1-((2S,4R)-4-hydroxy-2-(((S)-1-(4-(4-methylthiazol-5-yl)phenyl)ethyl)carbamoyl)pyrrolidin-1-yl)-3,3-dimethyl-1-oxobutan-2-yl)amino)-5-oxopentanoyl)-6-oxodecahydropyrrolo[1,2-a][1,5]diazocin-5-yl)carbamoyl)-1H-indole-5-carbonyl)phosphonic acid] | 10 to 100 nM | 10 to 100 nM |  | 10 to 100 nM
6 | Cc1ncsc1-c1ccc([C@H](C)NC(=O)[C@@H]2C[C@@H](O)CN2C(=O)[C@@H](NC(=O)CCCCC(=O)N2CC[C@H]3CC[C@@H](C(=O)N[C@@H](CCC(N)=O)C(=O)NC(c4ccccc4)c4ccccc4)N3C(=O)[C@@H](NC(=O)c3cc4cc(C(=O)P(=O)(O)O)ccc4[nH]3)C2)C(C)(C)C)cc1 [Compound 49, (2-(((5S,8S,10aR)-8-(((S)-5-amino-1-(benzhydrylamino)-1,5-dioxopentan-2-yl)carbamoyl)-3-(6-(((S)-1-((2S,4R)-4-hydroxy-2-(((S)-1-(4-(4-methylthiazol-5-yl)phenyl)ethyl)carbamoyl)pyrrolidin-1-yl)-3,3-dimethyl-1-oxobutan-2-yl)amino)-6-oxohexanoyl)-6-oxodecahydropyrrolo[1,2-a][1,5]diazocin-5-yl)carbamoyl)-1H-indole-5-carbonyl)phosphonic acid] | 10 to 100 nM | 10 to 100 nM |  | 10 to 100 nM
7 | Cc1ncsc1-c1ccc([C@H](C)NC(=O)[C@@H]2C[C@@H](O)CN2C(=O)[C@@H](NC(=O)CCCCCC(=O)N2CC[C@H]3CC[C@@H](C(=O)N[C@@H](CCC(N)=O)C(=O)NC(c4ccccc4)c4ccccc4)N3C(=O)[C@@H](NC(=O)c3cc4cc(C(=O)P(=O)(O)O)ccc4[nH]3)C2)C(C)(C)C)cc1 [Compound 50, (2-(((5S,8S,10aR)-8-(((S)-5-amino-1-(benzhydrylamino)-1,5-dioxopentan-2-yl)carbamoyl)-3-(7-(((S)-1-((2S,4R)-4-hydroxy-2-(((S)-1-(4-(4-methylthiazol-5-yl)phenyl)ethyl)carbamoyl)pyrrolidin-1-yl)-3,3-dimethyl-1-oxobutan-2-yl)amino)-7-oxoheptanoyl)-6-oxodecahydropyrrolo[1,2-a][1,5]diazocin-5-yl)carbamoyl)-1H-indole-5-carbonyl)phosphonic acid] | 10 to 100 nM | 10 to 100 nM |  | 100 to 1000 nM
8 | Cc1ncsc1-c1ccc([C@H](C)NC(=O)[C@@H]2C[C@@H](O)CN2C(=O)[C@@H](NC(=O)CCCCCCC(=O)N2CC[C@H]3CC[C@@H](C(=O)N[C@@H](CCC(N)=O)C(=O)NC(c4ccccc4)c4ccccc4)N3C(=O)[C@@H](NC(=O)c3cc4cc(C(=O)P(=O)(O)O)ccc4[nH]3)C2)C(C)(C)C)cc1 [Compound 51, (2-(((5S,8S,10aR)-8-(((S)-5-amino-1-(benzhydrylamino)-1,5-dioxopentan-2-yl)carbamoyl)-3-(8-(((S)-1-((2S,4R)-4-hydroxy-2-(((S)-1-(4-(4-methylthiazol-5-yl)phenyl)ethyl)carbamoyl)pyrrolidin-1-yl)-3,3-dimethyl-1-oxobutan-2-yl)amino)-8-oxooctanoyl)-6-oxodecahydropyrrolo[1,2-a][1,5]diazocin-5-yl)carbamoyl)-1H-indole-5-carbonyl)phosphonic acid] | 100 to 1000 nM | 100 to 1000 nM |  | 100 to 1000 nM
9 | Cc1ncsc1-c1ccc([C@H](C)NC(=O)[C@@H]2C[C@@H](O)CN2C(=O)[C@@H](NC(=O)CCCCCCCC(=O)N2CC[C@H]3CC[C@@H](C(=O)N[C@@H](CCC(N)=O)C(=O)NC(c4ccccc4)c4ccccc4)N3C(=O)[C@@H](NC(=O)c3cc4cc(C(=O)P(=O)(O)O)ccc4[nH]3)C2)C(C)(C)C)cc1 [Compound 52, (2-(((5S,8S,10aR)-8-(((S)-5-amino-1-(benzhydrylamino)-1,5-dioxopentan-2-yl)carbamoyl)-3-(9-(((S)-1-((2S,4R)-4-hydroxy-2-(((S)-1-(4-(4-methylthiazol-5-yl)phenyl)ethyl)carbamoyl)pyrrolidin-1-yl)-3,3-dimethyl-1-oxobutan-2-yl)amino)-9-oxononanoyl)-6-oxodecahydropyrrolo[1,2-a][1,5]diazocin-5-yl)carbamoyl)-1H-indole-5-carbonyl)phosphonic acid] | 100 to 1000 nM | 100 to 1000 nM |  | 100 to 1000 nM
10 | Cc1ncsc1-c1ccc([C@H](C)NC(=O)[C@@H]2C[C@@H](O)CN2C(=O)[C@@H](NC(=O)CCCCCCCCC(=O)N2CC[C@H]3CC[C@@H](C(=O)N[C@@H](CCC(N)=O)C(=O)NC(c4ccccc4)c4ccccc4)N3C(=O)[C@@H](NC(=O)c3cc4cc(C(=O)P(=O)(O)O)ccc4[nH]3)C2)C(C)(C)C)cc1 [Compound 53, (2-(((5S,8S,10aR)-8-(((S)-5-amino-1-(benzhydrylamino)-1,5-dioxopentan-2-yl)carbamoyl)-3-(10-(((S)-1-((2S,4R)-4-hydroxy-2-(((S)-1-(4-(4-methylthiazol-5-yl)phenyl)ethyl)carbamoyl)pyrrolidin-1-yl)-3,3-dimethyl-1-oxobutan-2-yl)amino)-10-oxodecanoyl)-6-oxodecahydropyrrolo[1,2-a][1,5]diazocin-5-yl)carbamoyl)-1H-indole-5-carbonyl)phosphonic acid] | 100 to 1000 nM | 100 to 1000 nM |  | 100 to 1000 nM
